Experiments:
TLR7 = biological target: T1, TLR7 (Homo sapiens, UniProt Q9NYK1); experiment: Human PBMC cell-based assay, TLR7 agonist GS-986 stimulation, cytokine (IL-6 and IFNα) readout; conditions: human PBMCs, GS-986 400 nM, 6 hours; Table 26; read-out: TLR-7 EC50
T1 construct: lymphocytes, monocytes and dendritic cells that express TLR7, TLR8 and TLR9; endogenous in cells; host or cells: human PBMCs from healthy donors
T1 sequence (Q9NYK1 27-1049): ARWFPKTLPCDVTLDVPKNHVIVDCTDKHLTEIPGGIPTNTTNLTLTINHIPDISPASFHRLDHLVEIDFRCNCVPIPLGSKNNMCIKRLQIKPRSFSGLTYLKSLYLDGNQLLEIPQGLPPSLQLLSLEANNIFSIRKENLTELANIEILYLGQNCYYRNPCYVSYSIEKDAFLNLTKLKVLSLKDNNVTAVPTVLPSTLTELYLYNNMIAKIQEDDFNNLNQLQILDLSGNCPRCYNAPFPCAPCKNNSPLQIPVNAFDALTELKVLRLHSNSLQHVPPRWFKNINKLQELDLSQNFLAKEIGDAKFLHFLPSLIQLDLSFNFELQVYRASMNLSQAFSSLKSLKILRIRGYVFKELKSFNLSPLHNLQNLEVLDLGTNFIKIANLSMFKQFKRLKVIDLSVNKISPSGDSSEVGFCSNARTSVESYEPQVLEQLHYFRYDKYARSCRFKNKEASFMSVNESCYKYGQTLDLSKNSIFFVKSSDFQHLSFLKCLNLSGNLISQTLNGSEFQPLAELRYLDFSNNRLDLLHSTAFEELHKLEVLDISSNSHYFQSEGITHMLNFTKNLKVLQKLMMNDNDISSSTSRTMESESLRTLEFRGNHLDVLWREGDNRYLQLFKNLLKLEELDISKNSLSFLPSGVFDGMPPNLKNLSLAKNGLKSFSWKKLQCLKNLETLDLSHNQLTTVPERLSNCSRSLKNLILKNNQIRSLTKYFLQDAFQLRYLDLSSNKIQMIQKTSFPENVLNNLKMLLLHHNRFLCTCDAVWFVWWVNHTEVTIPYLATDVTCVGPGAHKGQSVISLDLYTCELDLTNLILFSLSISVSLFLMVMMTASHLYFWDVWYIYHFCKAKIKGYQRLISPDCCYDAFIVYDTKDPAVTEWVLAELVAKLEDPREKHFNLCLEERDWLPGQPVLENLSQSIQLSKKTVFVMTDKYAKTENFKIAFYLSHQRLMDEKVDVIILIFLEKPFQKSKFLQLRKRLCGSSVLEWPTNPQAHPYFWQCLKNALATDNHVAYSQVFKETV
Description: (§1) Human peripheral blood mononuclear cells (PBMCs) consist of lymphocytes, monocytes and dendritic cells that express TLR7, TLR8 and TLR9. These cells respond to TLR7, TLR8 and TLR9 ligand stimulation and produce cytokines and chemokines in vitro and in vivo. Human PBMCs are therefore suitable to be used in a cell-based assay to assess the in vitro potency of a TLR 7, 8, and/or 9 antagonist. The result is expected to be more translatable to the pharmacodynamics response in vivo than cell line-based assays.
(§2) Cryopreserved human PBMCs from healthy donors were thawed and resuspended in RPMI-1640 media with L-glutamine (Corning) supplemented with 10% Fetal Bovine Serum (Hyclone) and 1X Penicillin-Streptomycin (Corning). After counting, the cell density was adjusted to 2 million cells/ml and incubated for 1 hour at 37° C., 5% CO2 for recovery. Following the recovery, the cells were plated by adding 50p per well (100,000 cells) to 384-well cell culture plates (Greiner) containing 250nl of test antagonists in 100% DMSO per well, in a 10 points dose response in quadruplicates. PBMCs were incubated in the presence of test antagonists for one hour at 37° C., 5% CO2 before being stimulated with a TLR7 or TLR9 agonist. GS-986 (Gilead Sciences) was used as the TLR7 agonist at a final concentration of 400 nM. ODN-2216 (InvivoGen) was used as the TLR9 agonist at a final concentration of 3μM. PBMCs were incubated in the presence of the test antagonist and the TLR7 (or TLR9) agonist for an additional 6 hours at 37° C., 5% CO2. At the end of the incubation, the cell culture plates were centrifuged at 500 g for 5 min, and the cell culture supernatant was collected. The level of cytokines (IL-6 and IFNα) in the supernatant was measured by electrochemiluminescence immunoassays (Mesoscale Discovery) following manufacturer's recommended protocols. The level of cytokine measured was plotted against the test antagonist concentration and fitted to a sigmoidal function to determine the EC50, which are shown below in Table 26.

TLR9 = biological target: T2, TLR9 (Homo sapiens, UniProt Q9NR96); experiment: Human PBMC cell-based assay, TLR9 agonist ODN-2216 stimulation, cytokine (IL-6 and IFNα) readout; conditions: human PBMCs, ODN-2216 3 μM, 6 hours; Table 26; read-out: TLR-9 EC50
T2 construct: lymphocytes, monocytes and dendritic cells that express TLR7, TLR8 and TLR9; endogenous in cells; host or cells: human PBMCs from healthy donors
T2 sequence (Q9NR96 26-1032): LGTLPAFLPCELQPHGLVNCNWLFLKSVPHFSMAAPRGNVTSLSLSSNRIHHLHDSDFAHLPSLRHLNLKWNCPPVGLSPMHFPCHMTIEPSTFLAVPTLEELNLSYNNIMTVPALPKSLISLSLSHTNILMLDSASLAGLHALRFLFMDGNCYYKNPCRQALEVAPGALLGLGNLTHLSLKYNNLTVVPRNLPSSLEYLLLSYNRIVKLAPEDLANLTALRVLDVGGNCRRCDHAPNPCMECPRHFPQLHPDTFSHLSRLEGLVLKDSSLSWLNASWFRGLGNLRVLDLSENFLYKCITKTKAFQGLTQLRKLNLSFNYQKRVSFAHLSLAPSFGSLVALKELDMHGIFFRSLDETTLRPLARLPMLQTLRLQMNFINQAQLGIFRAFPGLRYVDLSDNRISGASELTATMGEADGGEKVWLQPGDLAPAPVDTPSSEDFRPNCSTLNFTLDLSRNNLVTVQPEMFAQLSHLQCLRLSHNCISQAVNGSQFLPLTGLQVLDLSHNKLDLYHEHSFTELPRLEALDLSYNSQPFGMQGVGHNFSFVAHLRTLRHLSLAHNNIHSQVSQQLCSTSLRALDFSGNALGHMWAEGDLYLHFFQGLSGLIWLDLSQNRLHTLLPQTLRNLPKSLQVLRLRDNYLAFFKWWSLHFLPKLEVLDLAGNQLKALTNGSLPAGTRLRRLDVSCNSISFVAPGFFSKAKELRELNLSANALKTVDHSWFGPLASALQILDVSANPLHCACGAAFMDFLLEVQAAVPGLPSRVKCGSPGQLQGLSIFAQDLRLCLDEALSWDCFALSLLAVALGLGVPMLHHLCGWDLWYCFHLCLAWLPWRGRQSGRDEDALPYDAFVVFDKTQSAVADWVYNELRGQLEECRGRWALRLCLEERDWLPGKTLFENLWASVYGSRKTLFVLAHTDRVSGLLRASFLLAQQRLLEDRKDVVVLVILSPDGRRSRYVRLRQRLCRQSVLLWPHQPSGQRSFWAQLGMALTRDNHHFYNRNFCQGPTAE
Description: as §1, §2

EC50 (TLR7) | EC50 (TLR9) | Molecule
64.4 nM | 153 nM | Cc1cc(-c2[nH]c3cc(-c4ccc(N5CCNC6(CC6)C5)nc4)ccc3c2C)cc(C)n1 [Example 22, 6-(6-(4,7-diazaspiro[2.5]octan-7-yl)pyridin-3-yl)-2-(2,6-dimethylpyridin-4-yl)-3-methyl-1H-indole]
8.3 nM | 89.6 nM | Cc1cc(-c2[nH]c3cc(-c4ccc(NC5CCNCC5)nc4)ccc3c2C)cc(C)n1 [Example 24]
5.9 nM | 39.1 nM | Cc1cc(-c2[nH]c3cc(-c4ccc(N5CCC[C@@H](N)C5)nc4)ccc3c2C)cc(C)n1 [Example 25]
31 nM | 40.2 nM | Cc1cc(-c2[nH]c3cc(-c4ccc(N5CCC[C@H](N)C5)nc4)ccc3c2C)cc(C)n1 [Example 26]
 | 1340 nM | Cc1cc(-c2[nH]c3cc(-c4ccc5c(c4)CCCN5)ccc3c2C)cc(C)n1 [Example 43]
1.37 nM |  | Cc1c(-c2cc(C)c3ncnn3c2)[nH]c2cc(-c3cnc4c(c3)CNCC4)ccc12 [Example 170]
0.11 nM |  | Cc1c(-c2cc(C)c3ncnn3c2)[nH]c2cc(-c3ccc4nc([C@H]5N[C@@H]6CC[C@H]5C6)[nH]c4c3)ccc12 [Example 171]
1.01 nM |  | Cc1c(-c2cc(C)c3ncnn3c2)[nH]c2cc(-c3ccc4c(c3)ncn4C3CC4CC3CN4)ccc12 (centres unmarked) [Example 176]
1.66 nM |  | CCc1c(-c2cc(C)c3ncnn3c2)[nH]c2cc(-c3ccc(N4CCN(CC(N)=O)CC4)nc3)ccc12 [Example 177, 2-(4-(5-(3-ethyl-2-(8-methyl-[1,2,4]triazolo[1,5-a]pyridin-6-yl)-1H-indol-6-yl)pyridin-2-yl)piperazin-1-yl)acetamide]
483 nM |  | Cc1c(-c2cc(C)c3ncnn3c2)[nH]c2cc(-c3nc4ccccc4[nH]3)ccc12 [Example 193, 6-[6-(1H-benzimidazol-2-yl)-3-methyl-1H-indol-2-yl]-8-methyl-[1,2,4]triazolo[1,5-a]pyridine]
631 nM |  | Cc1c(-c2cc(C)c3ncnn3c2)[nH]c2cc(-c3nc4ccccc4n3C)ccc12 [Example 194]
4.48 nM |  | Cc1cc(-c2[nH]c3cc(-c4ccc5nc([C@@H]6N[C@H]7CC[C@@H]6C7)[nH]c5c4)ccc3c2C)cc(C)n1 [Example 195, 2-[(1S,3R,4R)-2-azabicyclo[2.2.1]heptan-3-yl]-6-[2-(2,6-dimethyl-4-pyridyl)-3-methyl-1H-indol-6-yl]-1H-benzimidazole]

Second part, the molecule before the results:

Molecule | EC50 (TLR7) | EC50 (TLR9)
2-(2,6-dimethylpyridin-4-yl)-3-methyl-6-(1′,2′,3′,6′-tetrahydro-[2,4′-bipyridin]-5-yl)-1H-indole [Example 133] | 24.8 nM | 50.4 nM
Cc1cc(-c2[nH]c3cc(-c4cnc(N5CCNCC5)c(C)c4)ccc3c2C)cc(C)n1 [Example 3] | 22.8 nM | 56.3 nM
Cc1cc(-c2[nH]c3cc(-c4ccc(N5CCNCC5)nc4C)ccc3c2C)cc(C)n1 [Example 4] | 26.1 nM | 153 nM
Cc1cc(-c2[nH]c3cc(-c4ccc(N)nc4)ccc3c2C)cc(C)n1 [Example 5] | 154 nM | 227 nM
Cc1cc(-c2[nH]c3cc(-c4cnn(C5CCNCC5)c4)ccc3c2C)cc(C)n1 [Example 6] | 15.8 nM | 84.5 nM
Cc1cc(-c2[nH]c3cc(-c4ccc(CN5CCNCC5)cc4)ccc3c2C)cc(C)n1 [Example 7] | 170 nM | 87.2 nM
Cc1cc(-c2[nH]c3cc(-c4ccc(C(=O)N5CCNCC5)cc4)ccc3c2C)cc(C)n1 [Example 8] | 84.3 nM | 84.4 nM
Cc1cc(-c2[nH]c3cc(-c4cnc5c(c4)CNCC5)ccc3c2C)cc(C)n1 [Example 9] | 38.1 nM | 50.5 nM
Cc1cc(-c2[nH]c3cc(-c4cnn5c4CNCC5)ccc3c2C)cc(C)n1 [Example 10] | 210 nM | 392 nM
Cc1cc(-c2[nH]c3cc(-c4cn(C5CCNCC5)nc4C)ccc3c2C)cc(C)n1 [Example 11] | 345 nM | 228 nM
Cc1cc(-c2[nH]c3cc(-c4cccc(C(=O)N5CCNCC5)c4)ccc3c2C)cc(C)n1 [Example 12] | 103 nM | 47.3 nM
Cc1cc(-c2[nH]c3cc(-c4ccc5c(c4)CCNC5)ccc3c2C)cc(C)n1 [Example 13] | 102 nM | 19.3 nM
Cc1cc(-c2[nH]c3cc(-c4ccc5c(c4)CNCC5)ccc3c2C)cc(C)n1 [Example 14] | 213 nM | 108 nM
Cc1cc(-c2[nH]c3cc(-c4ccc5c(c4)CNC5)ccc3c2C)cc(C)n1 [Example 15] | 53.6 nM | 55.6 nM
Cc1cc(-c2[nH]c3cc(-c4cnn(CCN)c4)ccc3c2C)cc(C)n1 [Example 16] | 254 nM | 275 nM
Cc1cc(-c2[nH]c3cc(-c4cnn(C5CCNC5)c4)ccc3c2C)cc(C)n1 (centres unmarked) [Example 17] | 124 nM | 73.6 nM
Cc1cc(-c2[nH]c3cc(-c4cnn(C5CCCNC5)c4)ccc3c2C)cc(C)n1 (centres unmarked) [Example 18] | 89.9 nM | 87.6 nM
Cc1cc(-c2[nH]c3cc(-c4cccc5c4CNC5)ccc3c2C)cc(C)n1 [Example 19] | 163 nM | 109 nM
Cc1cc(-c2[nH]c3cc(-c4ccc5c(c4)CC(N)C5)ccc3c2C)cc(C)n1 (centres unmarked) [Example 20] | 119 nM | 88.5 nM
Cc1cc(-c2[nH]c3cc(-c4ccc(N5CCC(N)CC5)nc4)ccc3c2C)cc(C)n1 [Example 21, 1-(5-(2-(2,6-dimethylpyridin-4-yl)-3-methyl-1H-indol-6-yl)pyridin-2-yl)piperidin-4-amine] | 8.6 nM | 28.3 nM

— patent US20250002471A1 (Gilead Sciences, Inc., priority 2020, published 2025)
